# Laboratory results reported in ChEMBL document CHEMBL1201862, “PubChem BioAssay data set” (2004).
#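 Cultured in 96-well plates, cells were exposed to test compound for 48 hours across five concentrations. Abbreviation: GI50, concentration required for 50% inhibition of growth.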 Activity calls are given as the source filed them. No stated cut-off is given here; in the data, active = GI50 up to about 1.1 µM and inactive = higher.
# How the values were obtained:
# Experiment in all cases: NCI anticancer screen, dose series, 48 h
# Malme-3M = tested on: Malme-3M
# SK-OV-3 = tested on: SK-OV-3
# TK-10 = tested on: TK-10
# HOP-62 = tested on: HOP-62
# LOX IMVI = tested on: LOX IMVI
# SNB-75 = tested on: SNB-75
# COLO 205 = tested on: COLO 205
# T47D = tested on: T47D
# 786-0 = tested on: 786-0
# RXF 393 = tested on: RXF 393
# HOP-92 = tested on: HOP-92
# K562 = tested on: K562
# MOLT-4 = tested on: MOLT-4
# OVCAR-5 = tested on: OVCAR-5
# OVCAR-8 = tested on: OVCAR-8
# HT-29 = tested on: HT-29
# KM12 = tested on: KM12
# HCT-15 = tested on: HCT-15
# ACHN = tested on: ACHN
# UACC-62 = tested on: UACC-62
# EKVX = tested on: EKVX
# NCI-H23 = tested on: NCI-H23
# SK-MEL-2 = tested on: SK-MEL-2
# RPMI-8226 = tested on: RPMI-8226
# M14 = tested on: M14
# UACC-257 = tested on: UACC-257
# NCI-H460 = tested on: NCI-H460
# SF-539 = tested on: SF-539
# SF-295 = tested on: SF-295
# NCI/ADR-RES = tested on: NCI/ADR-RES
# MDA-MB-435 = tested on: MDA-MB-435
# SF-268 = tested on: SF-268
# HL-60 = tested on: HL-60
# SNB-19 = tested on: SNB-19
# IGROV-1 = tested on: IGROV-1
# SK-MEL-5 = tested on: SK-MEL-5
# MCF7 = tested on: MCF7
# SN12C = tested on: SN12C
# OVCAR-3 = tested on: OVCAR-3
# HCT-116 = tested on: HCT-116
# A549 = tested on: A549
# CAKI-1 = tested on: CAKI-1
# SW-620 = tested on: SW-620
# Hs-578T = tested on: Hs-578T
# SK-MEL-28 = tested on: SK-MEL-28
# CCRF-CEM = tested on: CCRF-CEM
# A498 = tested on: A498
# U-251 = tested on: U-251
# PC-3 = tested on: PC-3
# NCI-H226 = tested on: NCI-H226
# MDA-MB-231 = tested on: MDA-MB-231
# NCI-H522 = tested on: NCI-H522
# OVCAR-4 = tested on: OVCAR-4
# HCC 2998 = tested on: HCC 2998
# DU-145 = tested on: DU-145
# SR = tested on: SR
# UO-31 = tested on: UO-31
structure (smiles),measurement,setting,value
COc1ccc(/C=C2/CSCC3=C2N=C(S)NC3c2ccc(OC)c(OC)c2OC)c(OC)c1OC (centres undefined),GI50,Malme-3M,23.2 µM (inactive)
same,GI50,SK-OV-3,49.7 µM (inactive)
same,GI50,TK-10,26.2 µM (inactive)
same,GI50,HOP-62,20.1 µM (inactive)
same,GI50,LOX IMVI,15.4 µM (inactive)
same,GI50,SNB-75,0.209 µM (active)
same,GI50,COLO 205,19.9 µM (inactive)
same,GI50,T47D,43.4 µM (inactive)
same,GI50,786-0,13.8 µM (inactive)
same,GI50,RXF 393,14.4 µM (inactive)
same,GI50,HOP-92,< 0.01 µM (active)
same,GI50,K562,7.6 µM (inactive)
same,GI50,MOLT-4,3.05 µM (inactive)
same,GI50,OVCAR-5,25.2 µM (inactive)
same,GI50,OVCAR-8,7.52 µM (inactive)
same,GI50,HT-29,12.6 µM (inactive)
same,GI50,KM12,12.1 µM (inactive)
same,GI50,HCT-15,25.7 µM
same,GI50,ACHN,19 µM (inactive)
same,GI50,UACC-62,16.8 µM (inactive)
same,GI50,EKVX,51.3 µM (inactive)
same,GI50,NCI-H23,18.9 µM (inactive)
same,GI50,SK-MEL-2,22.8 µM (inactive)
same,GI50,RPMI-8226,3.7 µM (inactive)
same,GI50,M14,12.6 µM (inactive)
same,GI50,UACC-257,14.8 µM (inactive)
same,GI50,NCI-H460,27.6 µM (inactive)
same,GI50,SF-539,16.8 µM (inactive)
same,GI50,SF-295,32.6 µM (inactive)
same,GI50,NCI/ADR-RES,7.43 µM (inactive)
same,GI50,MDA-MB-435,7.82 µM (inactive)
same,GI50,SF-268,16.8 µM (inactive)
same,GI50,HL-60,6.34 µM (inactive)
same,GI50,SNB-19,20.1 µM (inactive)
same,GI50,IGROV-1,20 µM (inactive)
same,GI50,SK-MEL-5,11.1 µM (inactive)
same,GI50,MCF7,0.0798 µM (active)
same,GI50,SN12C,17 µM (inactive)
same,GI50,OVCAR-3,43.7 µM (inactive)
same,GI50,HCT-116,8.09 µM (inactive)
same,GI50,A549,24.8 µM (inactive)
same,GI50,CAKI-1,36.6 µM (inactive)
same,GI50,SW-620,27.7 µM (inactive)
same,GI50,Hs-578T,> 100 µM (inactive)
same,GI50,SK-MEL-28,18.4 µM (inactive)
same,GI50,CCRF-CEM,3.4 µM (inactive)
same,GI50,A498,19 µM (inactive)
same,GI50,U-251,7.48 µM (inactive)
same,GI50,PC-3,12.1 µM (inactive)
same,GI50,NCI-H226,35 µM (inactive)
same,GI50,MDA-MB-231,17.7 µM (inactive)
same,GI50,NCI-H522,22.1 µM (inactive)
same,GI50,OVCAR-4,2.61 µM (inactive)
same,GI50,HCC 2998,31.3 µM (inactive)
same,GI50,DU-145,38.3 µM (inactive)
same,GI50,SR,< 0.01 µM (active)
C/C1=C\CC[C@@]2(C)O[C@@H]2[C@H]2OC(=O)C(C)C2C[C@H]1O (some centres undefined),GI50,Malme-3M,> 100 µM (inactive)
same,GI50,SK-OV-3,> 100 µM (inactive)
same,GI50,TK-10,> 100 µM (inactive)
same,GI50,LOX IMVI,> 100 µM (inactive)
same,GI50,SNB-75,> 100 µM (inactive)
same,GI50,COLO 205,> 100 µM (inactive)
same,GI50,786-0,> 100 µM (inactive)
same,GI50,RXF 393,> 100 µM (inactive)
same,GI50,HOP-92,> 100 µM (inactive)
same,GI50,K562,> 100 µM (inactive)
same,GI50,MOLT-4,> 100 µM (inactive)
same,GI50,OVCAR-5,> 100 µM (inactive)
same,GI50,OVCAR-8,> 100 µM (inactive)
same,GI50,HT-29,> 100 µM (inactive)
same,GI50,KM12,> 100 µM (inactive)
same,GI50,HCT-15,> 100 µM
same,GI50,ACHN,> 100 µM (inactive)
same,GI50,UACC-62,> 100 µM (inactive)
same,GI50,EKVX,> 100 µM (inactive)
same,GI50,NCI-H23,> 100 µM (inactive)
same,GI50,SK-MEL-2,> 100 µM (inactive)
same,GI50,RPMI-8226,> 100 µM (inactive)
same,GI50,M14,> 100 µM (inactive)
same,GI50,UACC-257,> 100 µM (inactive)
same,GI50,NCI-H460,> 100 µM (inactive)
same,GI50,SF-295,> 100 µM (inactive)
same,GI50,NCI/ADR-RES,> 100 µM (inactive)
same,GI50,MDA-MB-435,> 100 µM (inactive)
same,GI50,SF-268,> 100 µM (inactive)
same,GI50,SNB-19,> 100 µM (inactive)
same,GI50,IGROV-1,> 100 µM (inactive)
same,GI50,SK-MEL-5,22.5 µM (inactive)
same,GI50,MCF7,> 100 µM (inactive)
same,GI50,SN12C,> 100 µM (inactive)
same,GI50,HCT-116,> 100 µM (inactive)
same,GI50,A549,> 100 µM (inactive)
same,GI50,UO-31,> 100 µM (inactive)
same,GI50,CAKI-1,> 100 µM (inactive)
same,GI50,SW-620,> 100 µM (inactive)
same,GI50,Hs-578T,10.3 µM (inactive)
same,GI50,SK-MEL-28,> 100 µM (inactive)
same,GI50,CCRF-CEM,> 100 µM (inactive)
same,GI50,U-251,> 100 µM (inactive)
same,GI50,PC-3,> 100 µM (inactive)
same,GI50,MDA-MB-231,> 100 µM (inactive)
same,GI50,NCI-H522,> 100 µM (inactive)
same,GI50,OVCAR-4,> 100 µM (inactive)
same,GI50,HCC 2998,> 100 µM (inactive)
same,GI50,DU-145,> 100 µM (inactive)
same,GI50,SR,> 100 µM (inactive)
COc1cc(C2c3cc4c(cc3[C@@H](NC3CCN(Cc5ccccc5)CC3)C3COC(=O)[C@H]23)OCO4)cc(OC)c1O (some centres undefined),GI50,SN12C,0.0399 µM (active)
same,GI50,SR,< 0.01 µM (active)
CC(C)Cc1ccc(C(C)C(=O)O)cc1 (centres undefined) [IBUPROFEN],GI50,NCI-H23,> 100 µM (inactive)
